Laboratory results: ChEMBL document CHEMBL1201862, “PubChem BioAssay data set” (2004)
One block for each molecule: values may come before it. Activity calls are given as the source filed them.

Key:
Assay type in all cases: functional
[1] = target: Benomyl/methotrexate resistance protein (Candida albicans, UniProt P28873); experiment: CaMdr1 efflux pump inhibitor potency, dose response, singleplex, Cherry Pick1 hits (AID 588608)
[2] = target: Multidrug resistance protein CDR1 (Candida albicans, UniProt P43071); experiment: CaCDR1 efflux pump inhibitors in yeast, dose response, S. cerevisiae AD1-8u, singleplex, Cherry Pick1 hits (AID 588606)
Multidrug resistance protein CDR1, sequence (P43071 whole entry, looked up): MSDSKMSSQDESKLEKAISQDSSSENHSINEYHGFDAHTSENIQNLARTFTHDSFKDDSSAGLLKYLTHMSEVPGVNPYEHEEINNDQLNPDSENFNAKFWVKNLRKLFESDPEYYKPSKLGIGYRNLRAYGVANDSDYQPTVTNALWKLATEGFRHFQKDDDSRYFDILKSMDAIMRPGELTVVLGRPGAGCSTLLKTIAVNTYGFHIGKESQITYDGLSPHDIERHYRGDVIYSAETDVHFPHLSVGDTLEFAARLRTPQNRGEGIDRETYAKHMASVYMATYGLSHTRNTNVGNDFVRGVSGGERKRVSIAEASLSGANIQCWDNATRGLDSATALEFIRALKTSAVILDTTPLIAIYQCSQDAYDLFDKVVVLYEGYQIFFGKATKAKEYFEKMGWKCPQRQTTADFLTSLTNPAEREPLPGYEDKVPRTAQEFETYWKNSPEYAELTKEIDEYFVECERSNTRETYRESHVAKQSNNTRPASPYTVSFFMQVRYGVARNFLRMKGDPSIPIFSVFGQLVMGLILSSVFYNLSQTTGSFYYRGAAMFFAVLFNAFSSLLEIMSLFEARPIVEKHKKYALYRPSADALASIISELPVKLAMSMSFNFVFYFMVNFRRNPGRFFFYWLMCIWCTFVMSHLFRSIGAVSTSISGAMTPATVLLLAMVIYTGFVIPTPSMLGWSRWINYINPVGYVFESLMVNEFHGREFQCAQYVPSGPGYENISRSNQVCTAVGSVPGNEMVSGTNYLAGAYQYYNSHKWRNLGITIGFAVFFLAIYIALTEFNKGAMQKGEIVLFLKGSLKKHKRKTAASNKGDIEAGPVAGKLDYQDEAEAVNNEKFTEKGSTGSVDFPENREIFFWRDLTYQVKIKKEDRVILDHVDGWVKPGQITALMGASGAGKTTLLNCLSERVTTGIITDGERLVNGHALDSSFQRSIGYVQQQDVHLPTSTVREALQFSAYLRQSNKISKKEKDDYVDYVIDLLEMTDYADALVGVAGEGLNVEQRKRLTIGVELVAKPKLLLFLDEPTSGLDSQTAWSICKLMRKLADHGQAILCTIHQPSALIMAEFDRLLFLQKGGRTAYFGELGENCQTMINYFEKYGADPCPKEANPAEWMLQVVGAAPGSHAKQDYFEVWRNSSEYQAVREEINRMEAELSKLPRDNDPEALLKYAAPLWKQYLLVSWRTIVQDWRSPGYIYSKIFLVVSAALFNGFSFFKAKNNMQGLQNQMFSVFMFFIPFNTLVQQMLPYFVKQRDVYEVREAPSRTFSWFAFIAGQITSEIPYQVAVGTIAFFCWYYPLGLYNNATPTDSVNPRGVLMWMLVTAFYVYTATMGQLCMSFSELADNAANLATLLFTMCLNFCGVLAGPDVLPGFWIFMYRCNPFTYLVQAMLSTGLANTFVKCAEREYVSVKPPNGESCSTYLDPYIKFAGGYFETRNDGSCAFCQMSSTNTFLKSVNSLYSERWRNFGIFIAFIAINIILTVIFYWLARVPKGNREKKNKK

[3] = target: T1, Tyrosine-protein kinase receptor TYRO3 (Homo sapiens, UniProt Q06418);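 note: TYRO3 value obtained as one member of a kinome-wide profiling panel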
T1 sequence (Q06418 whole entry): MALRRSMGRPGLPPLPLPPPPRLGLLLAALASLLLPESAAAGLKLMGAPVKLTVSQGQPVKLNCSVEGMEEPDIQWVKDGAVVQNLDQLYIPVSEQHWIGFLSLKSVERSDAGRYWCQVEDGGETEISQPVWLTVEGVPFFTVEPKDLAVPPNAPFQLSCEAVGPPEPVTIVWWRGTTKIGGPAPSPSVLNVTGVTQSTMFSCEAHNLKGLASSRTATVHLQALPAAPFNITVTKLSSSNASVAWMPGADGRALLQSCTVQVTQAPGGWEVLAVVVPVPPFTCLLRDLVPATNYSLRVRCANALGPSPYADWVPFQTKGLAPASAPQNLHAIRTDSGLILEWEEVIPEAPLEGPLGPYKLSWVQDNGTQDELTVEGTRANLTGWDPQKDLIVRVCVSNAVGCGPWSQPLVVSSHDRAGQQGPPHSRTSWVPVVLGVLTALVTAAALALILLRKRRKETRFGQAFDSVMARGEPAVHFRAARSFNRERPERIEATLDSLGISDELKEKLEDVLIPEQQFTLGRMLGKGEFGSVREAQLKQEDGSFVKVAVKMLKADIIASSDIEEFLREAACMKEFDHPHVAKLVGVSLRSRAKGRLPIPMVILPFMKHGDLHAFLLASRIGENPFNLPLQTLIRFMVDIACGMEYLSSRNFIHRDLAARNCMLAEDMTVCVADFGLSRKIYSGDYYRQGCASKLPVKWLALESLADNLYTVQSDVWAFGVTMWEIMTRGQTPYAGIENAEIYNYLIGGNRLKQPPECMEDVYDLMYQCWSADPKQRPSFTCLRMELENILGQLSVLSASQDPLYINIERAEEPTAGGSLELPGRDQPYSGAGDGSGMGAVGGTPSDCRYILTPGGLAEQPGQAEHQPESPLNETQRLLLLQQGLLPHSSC

[4] = target: Dual specificity protein kinase CLK4 (Homo sapiens, UniProt Q9HAZ1)
[5] = target: Leucine-rich repeat serine/threonine-protein kinase 2 (Homo sapiens, UniProt Q5S007);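 note: value from a broad kinome-wide panel profiling study in which LRRK2 was one of the kinases tested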
[6] = target: Leukocyte tyrosine kinase receptor (Homo sapiens, UniProt P29376); experiment: Navigating the Kinome. Panel member name: LTK
[7] = target: Casein kinase I isoform alpha (Homo sapiens, UniProt P48729)
[8] = target: Dual specificity tyrosine-phosphorylation-regulated kinase 1B (Homo sapiens, UniProt Q9Y463); experiment: Navigating the Kinome. Panel member name: DYRK1B
[9] = target: T2, Serine/threonine-protein kinase Chk1 (Homo sapiens, UniProt O14757);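 note: measured as one member of a kinome-wide kinase profiling panel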
T2 sequence (O14757 whole entry): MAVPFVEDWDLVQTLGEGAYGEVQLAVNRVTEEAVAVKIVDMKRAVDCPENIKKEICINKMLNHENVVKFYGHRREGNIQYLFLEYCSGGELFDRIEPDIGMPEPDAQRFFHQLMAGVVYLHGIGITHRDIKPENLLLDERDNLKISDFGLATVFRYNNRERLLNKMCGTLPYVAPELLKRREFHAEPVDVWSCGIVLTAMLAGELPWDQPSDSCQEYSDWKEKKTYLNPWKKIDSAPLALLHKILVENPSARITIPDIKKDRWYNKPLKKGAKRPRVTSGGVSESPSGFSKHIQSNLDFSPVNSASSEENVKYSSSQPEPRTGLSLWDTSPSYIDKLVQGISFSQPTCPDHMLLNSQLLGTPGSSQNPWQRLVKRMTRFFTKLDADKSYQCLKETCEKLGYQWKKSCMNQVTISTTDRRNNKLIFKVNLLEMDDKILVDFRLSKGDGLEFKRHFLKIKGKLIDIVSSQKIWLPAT

[10] = target: LIM domain kinase 1 (Homo sapiens, UniProt P53667); experiment: Navigating the Kinome. Panel member name: LIMK1
[11] = target: G protein-coupled receptor kinase 5 (Homo sapiens, UniProt P34947); experiment: Navigating the Kinome. Panel member name: GPRK5
G protein-coupled receptor kinase 5, sequence (P34947 whole entry): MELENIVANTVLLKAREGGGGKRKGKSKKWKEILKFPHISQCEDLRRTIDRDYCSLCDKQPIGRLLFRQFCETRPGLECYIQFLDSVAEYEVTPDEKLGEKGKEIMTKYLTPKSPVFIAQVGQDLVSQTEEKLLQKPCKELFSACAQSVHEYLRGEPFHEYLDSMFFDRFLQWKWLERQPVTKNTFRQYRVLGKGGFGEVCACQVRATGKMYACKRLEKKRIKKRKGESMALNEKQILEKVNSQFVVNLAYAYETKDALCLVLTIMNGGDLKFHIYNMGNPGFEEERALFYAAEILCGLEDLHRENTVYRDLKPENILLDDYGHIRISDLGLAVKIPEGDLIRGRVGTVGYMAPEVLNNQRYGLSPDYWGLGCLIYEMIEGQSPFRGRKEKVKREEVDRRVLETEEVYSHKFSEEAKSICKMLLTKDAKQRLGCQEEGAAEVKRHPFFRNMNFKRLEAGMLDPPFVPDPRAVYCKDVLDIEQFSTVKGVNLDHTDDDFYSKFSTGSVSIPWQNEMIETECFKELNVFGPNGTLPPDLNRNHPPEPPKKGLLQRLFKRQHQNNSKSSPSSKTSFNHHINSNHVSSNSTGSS

[12] = target: T3, Aurora kinase A (Homo sapiens, UniProt O14965);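 note: value from the Navigating the Kinome kinase panel profiling, panel entry STK6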
T3 sequence (O14965 whole entry): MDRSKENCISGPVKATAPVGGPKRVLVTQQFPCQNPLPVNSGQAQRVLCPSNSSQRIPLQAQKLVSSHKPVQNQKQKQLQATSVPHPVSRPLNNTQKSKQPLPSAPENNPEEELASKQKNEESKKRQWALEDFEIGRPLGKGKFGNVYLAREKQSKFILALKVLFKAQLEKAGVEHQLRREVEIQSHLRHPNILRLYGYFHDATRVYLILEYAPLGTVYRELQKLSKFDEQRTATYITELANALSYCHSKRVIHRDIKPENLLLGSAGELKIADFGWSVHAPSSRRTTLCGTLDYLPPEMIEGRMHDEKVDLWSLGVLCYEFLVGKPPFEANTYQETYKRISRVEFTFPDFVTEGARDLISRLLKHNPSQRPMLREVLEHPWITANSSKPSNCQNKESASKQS

[13] = target: Aurora kinase B (Homo sapiens, UniProt Q96GD4)
Aurora kinase B, sequence (Q96GD4 whole entry): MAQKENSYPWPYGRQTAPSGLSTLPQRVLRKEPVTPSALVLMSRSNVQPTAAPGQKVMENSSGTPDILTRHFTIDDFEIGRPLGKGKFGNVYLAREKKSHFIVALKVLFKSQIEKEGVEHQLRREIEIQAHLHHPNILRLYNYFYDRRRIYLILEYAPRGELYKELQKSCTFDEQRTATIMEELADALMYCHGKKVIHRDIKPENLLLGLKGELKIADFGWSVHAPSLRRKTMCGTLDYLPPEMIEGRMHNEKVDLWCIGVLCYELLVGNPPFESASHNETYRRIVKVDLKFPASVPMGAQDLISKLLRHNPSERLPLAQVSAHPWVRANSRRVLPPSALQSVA

[14] = target: Vascular endothelial growth factor receptor 2 (Homo sapiens, UniProt P35968)
Vascular endothelial growth factor receptor 2, sequence (P35968 whole entry): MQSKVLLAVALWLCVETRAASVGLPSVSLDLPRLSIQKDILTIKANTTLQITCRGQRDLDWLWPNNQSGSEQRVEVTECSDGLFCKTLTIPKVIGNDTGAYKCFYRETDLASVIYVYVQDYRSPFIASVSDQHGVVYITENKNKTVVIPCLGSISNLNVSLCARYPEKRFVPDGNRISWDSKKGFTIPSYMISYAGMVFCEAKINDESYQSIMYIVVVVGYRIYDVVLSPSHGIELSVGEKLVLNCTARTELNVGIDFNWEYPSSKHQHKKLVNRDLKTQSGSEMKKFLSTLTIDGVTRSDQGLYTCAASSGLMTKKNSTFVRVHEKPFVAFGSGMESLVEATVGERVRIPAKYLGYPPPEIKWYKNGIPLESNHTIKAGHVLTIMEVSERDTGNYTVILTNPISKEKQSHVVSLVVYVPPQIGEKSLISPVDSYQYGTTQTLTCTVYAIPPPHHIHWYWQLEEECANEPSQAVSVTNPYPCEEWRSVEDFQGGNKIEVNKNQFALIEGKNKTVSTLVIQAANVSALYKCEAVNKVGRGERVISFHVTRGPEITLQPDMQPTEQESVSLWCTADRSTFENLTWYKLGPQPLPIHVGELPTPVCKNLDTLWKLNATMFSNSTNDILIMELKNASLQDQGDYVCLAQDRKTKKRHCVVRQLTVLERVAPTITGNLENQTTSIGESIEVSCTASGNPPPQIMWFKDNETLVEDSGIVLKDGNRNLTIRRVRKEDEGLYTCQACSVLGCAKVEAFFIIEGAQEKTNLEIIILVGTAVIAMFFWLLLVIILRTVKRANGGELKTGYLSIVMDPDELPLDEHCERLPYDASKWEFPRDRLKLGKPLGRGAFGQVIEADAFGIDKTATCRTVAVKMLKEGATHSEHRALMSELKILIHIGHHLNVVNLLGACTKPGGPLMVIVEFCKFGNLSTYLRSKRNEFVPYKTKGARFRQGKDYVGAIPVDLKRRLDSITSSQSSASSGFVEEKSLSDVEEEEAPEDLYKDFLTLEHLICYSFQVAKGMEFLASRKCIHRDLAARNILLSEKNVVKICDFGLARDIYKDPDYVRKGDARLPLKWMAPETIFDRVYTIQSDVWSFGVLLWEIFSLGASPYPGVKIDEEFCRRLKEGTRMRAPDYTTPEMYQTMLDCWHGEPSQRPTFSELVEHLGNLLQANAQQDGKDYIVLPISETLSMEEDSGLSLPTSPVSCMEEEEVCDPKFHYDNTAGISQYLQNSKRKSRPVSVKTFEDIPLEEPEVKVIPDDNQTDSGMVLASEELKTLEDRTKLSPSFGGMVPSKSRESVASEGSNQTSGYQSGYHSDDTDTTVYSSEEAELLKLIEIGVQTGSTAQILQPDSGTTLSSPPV

[15] = target: Melanin-concentrating hormone receptor 1 (Homo sapiens, UniProt Q99705); experiment: Late-stage fluorescence-based counterscreen for antagonists of the G-protein coupled receptor 7 (GPR7): cell-based dose response assay to identify antagonists of the melanin-concentrating hormone receptor 1 (MCHR1) Set 5.
[16] = target: Serine/threonine-protein kinase pim-1 (Homo sapiens, UniProt P11309)
[17] = target: Mitogen-activated protein kinase kinase kinase kinase 2 (Homo sapiens, UniProt Q12851);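 note: measured as one member of a kinome-wide kinase panel, with MAP4K2 as the panel entry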
[18] = target: Dual specificity mitogen-activated protein kinase kinase 2 (Homo sapiens, UniProt P36507); experiment: Navigating the Kinome. Panel member name: MAP2K2
Dual specificity mitogen-activated protein kinase kinase 2, sequence (P36507 whole entry): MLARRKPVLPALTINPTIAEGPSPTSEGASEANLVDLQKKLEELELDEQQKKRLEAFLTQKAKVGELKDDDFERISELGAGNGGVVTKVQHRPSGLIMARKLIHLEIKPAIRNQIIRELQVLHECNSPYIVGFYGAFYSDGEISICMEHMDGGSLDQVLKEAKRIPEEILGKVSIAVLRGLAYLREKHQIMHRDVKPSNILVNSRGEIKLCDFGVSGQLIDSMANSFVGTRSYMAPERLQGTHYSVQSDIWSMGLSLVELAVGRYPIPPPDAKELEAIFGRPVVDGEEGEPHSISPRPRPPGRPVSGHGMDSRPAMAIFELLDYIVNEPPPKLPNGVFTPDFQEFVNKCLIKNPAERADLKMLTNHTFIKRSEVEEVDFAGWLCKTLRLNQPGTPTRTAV

[19] = target: Cyclin-dependent kinase 8 (Homo sapiens, UniProt P49336); experiment: Navigating the Kinome. Panel member name: CDK8
Cyclin-dependent kinase 8, sequence (P49336 whole entry): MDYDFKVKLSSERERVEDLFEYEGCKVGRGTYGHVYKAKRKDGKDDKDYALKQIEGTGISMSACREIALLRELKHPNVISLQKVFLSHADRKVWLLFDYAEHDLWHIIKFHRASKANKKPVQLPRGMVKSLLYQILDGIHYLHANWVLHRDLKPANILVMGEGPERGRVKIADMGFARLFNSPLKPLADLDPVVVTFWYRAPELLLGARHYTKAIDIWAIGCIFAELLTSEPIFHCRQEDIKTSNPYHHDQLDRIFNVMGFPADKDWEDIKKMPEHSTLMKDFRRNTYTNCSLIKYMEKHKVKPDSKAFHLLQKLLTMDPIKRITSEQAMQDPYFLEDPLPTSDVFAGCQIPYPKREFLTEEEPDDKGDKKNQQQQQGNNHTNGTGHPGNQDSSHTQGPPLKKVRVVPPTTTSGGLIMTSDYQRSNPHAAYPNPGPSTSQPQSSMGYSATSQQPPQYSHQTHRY

[20] = target: T4, Small ubiquitin-related modifier 1 (Homo sapiens, UniProt P63165); experiment: inhibitors of SUMO1 partner interactions, dose response, biochemical, FRET (AID 624383); settings: read-out: IC50_Mean
T4 sequence (P63165 whole entry): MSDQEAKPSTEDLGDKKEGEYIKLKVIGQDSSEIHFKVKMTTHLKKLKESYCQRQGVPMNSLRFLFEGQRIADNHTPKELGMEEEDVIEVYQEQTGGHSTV

[21] = target: T5, Insulin-degrading enzyme (Homo sapiens, UniProt P14735); experiment: Dose Response: Fluorescence polarization-based cell-based high throughput dose response assay for inhibitors of insulin-degrading enzyme (IDE). [Related pubchem assays: 434962 (Primary screen (IDE inhibitors in singlicate)), 449730 (Counterscreen (Cytotoxicity in triplicate)), 435028 (Confirmation (IDE inhibitors in triplicate)), 434984 (Summary …
T5 sequence (P14735 whole entry): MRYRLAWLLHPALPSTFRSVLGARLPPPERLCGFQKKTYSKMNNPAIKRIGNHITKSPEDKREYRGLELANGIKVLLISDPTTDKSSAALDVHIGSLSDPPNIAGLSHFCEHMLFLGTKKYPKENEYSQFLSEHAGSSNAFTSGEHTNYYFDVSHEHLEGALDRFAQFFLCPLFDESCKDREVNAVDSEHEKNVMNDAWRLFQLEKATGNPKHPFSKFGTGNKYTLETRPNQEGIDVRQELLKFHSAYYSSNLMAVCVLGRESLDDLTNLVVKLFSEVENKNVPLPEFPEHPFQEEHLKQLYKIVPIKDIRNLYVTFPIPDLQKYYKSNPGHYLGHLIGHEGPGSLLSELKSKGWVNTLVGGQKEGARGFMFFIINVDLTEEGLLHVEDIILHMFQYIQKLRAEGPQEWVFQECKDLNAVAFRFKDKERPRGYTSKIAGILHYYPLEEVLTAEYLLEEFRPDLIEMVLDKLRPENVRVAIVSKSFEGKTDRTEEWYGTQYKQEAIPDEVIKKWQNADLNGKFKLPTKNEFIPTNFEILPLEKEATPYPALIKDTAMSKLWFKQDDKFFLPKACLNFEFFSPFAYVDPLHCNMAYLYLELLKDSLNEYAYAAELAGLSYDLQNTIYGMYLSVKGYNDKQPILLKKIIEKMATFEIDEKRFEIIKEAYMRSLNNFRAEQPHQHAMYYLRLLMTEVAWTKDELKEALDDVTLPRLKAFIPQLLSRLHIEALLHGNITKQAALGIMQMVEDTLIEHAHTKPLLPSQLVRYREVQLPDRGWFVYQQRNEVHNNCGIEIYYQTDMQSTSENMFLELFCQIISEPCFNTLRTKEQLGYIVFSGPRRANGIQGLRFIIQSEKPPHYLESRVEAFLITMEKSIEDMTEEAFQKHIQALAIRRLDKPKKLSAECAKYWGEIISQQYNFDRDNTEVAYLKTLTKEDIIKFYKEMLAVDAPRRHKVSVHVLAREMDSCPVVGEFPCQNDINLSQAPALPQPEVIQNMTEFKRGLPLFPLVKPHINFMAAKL

[22] = Counterscreen for IDE inhibitors: Luminescence-based cell-based high throughput dose response assay to identify compounds that are cytotoxic to HEK cells. [Related pubchem assays: 434962 (Primary screen (IDE inhibitors in singlicate)), 449730 (Counterscreen (Cytotoxicity in triplicate)), 435028 (Confirmation (IDE inhibitors in triplicate)) …; settings: HEK293
[23] = target: T4, Small ubiquitin-related modifier 1; experiment: inhibitors of SUMO1 peptide binding, dose response, biochemical, fluorescence polarization, uHTS hits (AID 624382); settings: read-out: IC50_Mean
[24] = target: T6, Multidrug resistance protein CDR2 (Candida albicans (strain SC5314 / ATCC MYA-2876) (Yeast), UniProt P78595); experiment: CaCDR2 efflux pump inhibitors in yeast, dose response, S. cerevisiae AD1-8u, singleplex, Cherry Pick1 hits (AID 588604)
T6 sequence (P78595 whole entry): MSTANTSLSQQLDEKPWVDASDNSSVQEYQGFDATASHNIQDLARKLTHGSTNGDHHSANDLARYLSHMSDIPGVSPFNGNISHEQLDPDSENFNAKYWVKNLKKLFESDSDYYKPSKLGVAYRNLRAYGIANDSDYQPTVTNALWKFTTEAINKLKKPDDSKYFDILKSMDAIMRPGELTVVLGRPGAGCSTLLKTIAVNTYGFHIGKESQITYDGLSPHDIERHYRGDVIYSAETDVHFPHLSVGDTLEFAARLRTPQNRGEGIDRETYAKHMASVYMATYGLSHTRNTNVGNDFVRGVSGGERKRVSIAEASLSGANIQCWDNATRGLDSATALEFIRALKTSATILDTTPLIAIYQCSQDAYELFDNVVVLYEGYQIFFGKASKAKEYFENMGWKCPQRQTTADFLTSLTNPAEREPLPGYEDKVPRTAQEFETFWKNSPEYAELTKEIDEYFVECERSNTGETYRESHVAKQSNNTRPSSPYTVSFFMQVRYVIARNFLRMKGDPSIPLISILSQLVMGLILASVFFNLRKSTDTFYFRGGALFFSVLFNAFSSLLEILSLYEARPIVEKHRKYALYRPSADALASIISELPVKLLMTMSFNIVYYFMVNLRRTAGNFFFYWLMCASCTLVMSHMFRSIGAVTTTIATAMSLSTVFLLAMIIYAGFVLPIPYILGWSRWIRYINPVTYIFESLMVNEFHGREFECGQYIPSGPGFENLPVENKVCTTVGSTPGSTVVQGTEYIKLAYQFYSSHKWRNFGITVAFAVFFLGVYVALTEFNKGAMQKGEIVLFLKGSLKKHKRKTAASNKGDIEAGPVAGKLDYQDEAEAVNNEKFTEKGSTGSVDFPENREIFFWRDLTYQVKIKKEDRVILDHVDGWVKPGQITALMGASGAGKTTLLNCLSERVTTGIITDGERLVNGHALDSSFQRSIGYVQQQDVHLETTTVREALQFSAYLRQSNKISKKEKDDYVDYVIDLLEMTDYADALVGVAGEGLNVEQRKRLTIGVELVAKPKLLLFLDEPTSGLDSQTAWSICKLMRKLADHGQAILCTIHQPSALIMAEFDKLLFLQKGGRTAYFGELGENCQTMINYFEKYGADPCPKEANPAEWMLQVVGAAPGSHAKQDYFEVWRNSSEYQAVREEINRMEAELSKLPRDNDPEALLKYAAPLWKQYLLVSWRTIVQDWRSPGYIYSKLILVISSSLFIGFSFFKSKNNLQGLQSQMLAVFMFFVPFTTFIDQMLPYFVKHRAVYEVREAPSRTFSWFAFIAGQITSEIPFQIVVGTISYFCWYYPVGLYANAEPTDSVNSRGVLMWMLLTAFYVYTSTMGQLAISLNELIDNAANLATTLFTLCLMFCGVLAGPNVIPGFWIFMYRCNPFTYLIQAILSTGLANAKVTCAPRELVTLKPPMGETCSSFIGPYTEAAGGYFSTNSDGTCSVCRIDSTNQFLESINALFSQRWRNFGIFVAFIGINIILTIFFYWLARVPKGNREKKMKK

SMILES: COc1ccc2sc(-c3ccccc3OC)c(-c3ccc(OCCN4CCOCC4)cc3)c2c1
EC50 [1]: 10.6 µM (active) | EC50 [2]: 10 µM (active)

SMILES: CC(C)CC(CO)NC(=O)C=Cc1cnc(N)c2ccccc12 (centres undefined)
Ki [12]: 1.58 µM (active) | Ki [13]: 0.0158 µM (active) | Ki [14]: > 5.01 µM (inactive)

SMILES: O=C1Nc2ccccc2/C1=C/c1c[nH]c(-c2ccccc2)n1
IC50 [20]: 4.96 µM (active) | IC50 [21]: > 55.9 µM (not active) | IC50 [22]: 18.1 µM (not active) | IC50 [23]: > 66.6 µM (inactive) | EC50 [24]: 3.89 µM (active)

The next lines start with the values.

Ki [3]: 50.1 µM (active) | Ki [4]: 63.1 µM (active) | Ki [5]: 100 µM (active) | Ki [6]: 100 µM (active) | Ki [7]: 79.4 µM (active) | Ki [8]: 63.1 µM (active) | Ki [9]: 63.1 µM (active) | Ki [10]: 63.1 µM (active) | Ki [11]: 50.1 µM (active)
SMILES: Nc1nnc2cccc(Cl)n12

IC50 [15]: 17.9 µM (inactive)
SMILES: O=c1c(Oc2ccc3c(c2)CCC3)c(Cl)cnn1Cc1cccc2ccccc12

Ki [16]: 2.51 µM (active) | Ki [17]: 2.51 µM (active) | Ki [18]: 1.26 µM (active) | Ki [19]: 1 µM (active)
SMILES: Nc1cc2c(Oc3ccc(Cl)cc3)cncc2s1
